Source: patent publication US5804410A, “Nucleic acid sequence encoding trypsin-like enzyme and process for producing the enzyme” (Teijin Limited, priority 1994, dated 1998)

Columns and labels:
trypsin-like enzyme = biological target: T1, trypsin-like enzyme (Homo sapiens, UniProt O60235); assay: Substrate specificity, synthetic MCA substrates (assay method of trypsin activity); type: biochemical; conditions: synthetic substrates, pH 8.6
T1 construct: from tissue; host or cells: cough phlegm (sputum) of patients with chronic disease of the respiratory tract

[1] = Measurement of optimum pH of trypsin-like enzyme; type: biochemical; conditions: at pH 6.0, relative to the enzyme at pH 7.6
Description: 50 μl of the solution of the trypsin-like protease obtained in Example 1 was added to 1.5 ml of 0.1M Tris-HCl buffer (pH 8.6) containing 100 μM of a synthetic substrate for trypsin Boc-Phe-Ser-Arg-MCA (MCA=methylcoumarinamide), and the mixture was subjected to incubation at 37° C. for 1 hour. 1 ml of 30% acetic acid was then added, the amount of 7-amino-4-methylcoumarin (AMC) formed was determined by fluorescent assay (fluorescence 440 nm, excitating light 380 nm), and the activity of the enzyme was calculated based thereon. An activity of forming 1 pM of AMC in 1 minute is defined as 1 unit (1 unit=1 pM AMC/min).
The following buffers were prepared for ascertaining trypsin activity at various pH values.
The activity of the trypsin-like enzyme obtained in Example 1 in each buffer was assayed according to the method described in Example 2, and the results are shown in FIG. 2.

fibrinogen = assay: Influence of trypsin-like enzyme on thrombin-induced coagulation time of fibrinogen; type: biochemical; conditions: fibrinogen 2 mg/ml, 37° C., thrombin 2.5 units/ml; in proportion as the added activity unit increases; FIG. 3
Description: Fibrinogen was dissolved in 0.01M Tris-HCl buffer (pH 7.4), 0.01M CaCl2 0.15M NaCl so that its concentration could be 2 mg/ml, the trypsin-like enzyme obtained in Example 1 was added with its activity unit changed, the mixture was heated to 37° C., 0.1 ml of this reaction solution was mixed with 0.1 ml of a thrombin solution (2.5 units/ml), and coagulation time was measured on the mixture. In proportion as the added activity unit of the trypsin-like enzyme increases, coagulation time was prolonged.

influenza viruses = conditions: in contrast to trypsin; cited from earlier work
NDV Miyadera strain = conditions: cited from earlier work
VSV New Jersey strain = conditions: cited from earlier work

T1 sequence (O60235 187-418): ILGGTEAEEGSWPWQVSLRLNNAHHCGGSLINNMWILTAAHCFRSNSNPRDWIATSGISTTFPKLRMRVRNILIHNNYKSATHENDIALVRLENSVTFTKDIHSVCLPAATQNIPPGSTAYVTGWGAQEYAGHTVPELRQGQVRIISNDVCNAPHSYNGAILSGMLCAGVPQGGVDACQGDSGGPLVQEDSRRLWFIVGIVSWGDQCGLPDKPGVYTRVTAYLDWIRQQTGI

trypsin-like enzyme: protease isolated from cough phlegm of patients with chronic respiratory tract disease, amino acid sequence [I] (SEQ ID NO:19)
chymotrypsin activity, elastase activity, collagenase activity, leucine aminopeptidase activity of the enzyme (trypsin-like enzyme): did not exhibit | Inactivation by pH [1]: about 80% | coagulation time (fibrinogen): prolonged | action of inactivating influenza viruses (influenza viruses): inactivating | action of inactivating NDV Miyadera strain (NDV Miyadera strain): inactivating | action of inactivating VSV New Jersey strain (VSV New Jersey strain): inactivating
